Km data for two compounds are collected here from publication PMC3195688, “Glucose-6-Phosphate Dehydrogenase Regulation in Anoxia Tolerance of the Freshwater Crayfish Orconectes virilis” (Enzyme Research, 2011).

In the assay the test system is T1, Glucose-6-phosphate dehydrogenase (G6PDH).
T1 construct: gene G6PD; native enzyme in crude hepatopancreas extract of aerobic control animals, not purified; mixture of low- and high-phosphate forms
Nature of the assay: NADPH production at […] nm, microplate reader. Format: biochemical, Faxonius virilis. The settings on record: untreated extract of aerobic control animals, 50 mM imidazole, pH 7.0, 22 °C, read-out: Control K m.

Each structure is given as a SMILES string. Read-outs that look alike come from different tables or passages of the source.

`NC(=O)c1ccc[n+]([C@@H]2O[C@H](COP(=O)(O)OP(=O)(O)OC[C@H]3O[C@@H](n4cnc5c(N)ncnc54)[C@H](OP(=O)(O)O)[C@@H]3O)[C@@H](O)[C@H]2O)c1` [NADP^+]: the Km (G6P constant) is 150 ± 8 µM.

For the compound `O=P(O)(O)OC[C@H]1OC(O)[C@H](O)[C@@H](O)[C@@H]1O` (some centres unmarked) [G6P], the Km (NADP+ constant) was 130 ± 16 µM.
